For one assay, the target named is T1, rat 17β-HSD 1 (Rattus norvegicus, UniProt P51657).
T1 construct: Full length cDNAs of several 17β-HSDs type 1 originating from different species were cloned; made in house; host or cells: E.coli BL21 DE3 Codon Plus RP
T1 sequence (P51657 1-344): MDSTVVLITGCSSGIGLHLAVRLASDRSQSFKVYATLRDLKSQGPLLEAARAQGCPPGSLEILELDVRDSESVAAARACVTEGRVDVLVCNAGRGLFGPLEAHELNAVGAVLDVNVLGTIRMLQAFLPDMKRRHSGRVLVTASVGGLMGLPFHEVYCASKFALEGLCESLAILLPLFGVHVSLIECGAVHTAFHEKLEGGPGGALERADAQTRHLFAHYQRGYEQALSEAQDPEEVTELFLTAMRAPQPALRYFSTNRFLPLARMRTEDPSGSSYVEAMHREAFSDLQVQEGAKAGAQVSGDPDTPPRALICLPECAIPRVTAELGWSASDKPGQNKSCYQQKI
Kind of assay: In vitro enzymatic activity, recombinant rat 17β-HSD 1. The format is biochemical. The settings on record: 2 µM compound, 15 nM 3H-estrone, read-out: Observed % inhibition. The source says:
(§1) Full length cDNAs of several 17β-HSDs type 1 originating from different species were cloned either into the pQE30 vector (human 17β-HSD 1, coding for acc. no. NP_000404) for expression as His-Tag protein or into a modified pGex-2T vector [63] (mouse 17β-HSD 1, acc. no. NP_034605; rat 17β-HSD 1, acc. no. NP_036983; marmoset 17β-HSD 1, acc. no. AAG01115; porcine 17β-HSD 1, acc. no. NP_001121944) for expression as GST-fusion proteins. The marmoset 17β-HSD 1 enzyme sequence was updated by the missing N-terminal part (AF272013) and the new porcine sequence was submitted to GenBank (NP_001121944). Human 17β-HSDs 2, 4, 5 (AKR1C3, the latter kindly provided by Dr. T. Penning) and 7 were all cloned into the modified pGEX-2T vector. For 17β-HSD 4 only the SDR-domain converting the steroids was subcloned. Plasmids were transformed into E.coli BL21 DE3 Codon Plus RP (Stratagene) and enzyme expression was induced by 0.5 mM IPTG. After 4h incubation at 37°C with continuous shaking bacteria were pelleted by centrifugation at 10.000×g. Pellets were stored until use at −20°C.
(§2) The bacteria containing recombinant enzymes were resuspended in PBS and enzymatic assays were performed in 100 mM sodium phosphate buffer at pH 6.6 for the reductive reaction and at pH 7.7 for the oxidative reaction. […] All substrates were purchased from NEN/Perkin Elmer. The cofactors NADPH (Sigma; for reductive reactions) and NAD^+ (Serva, for oxidative reactions) were used at final concentrations of 0.5 mg/ml. […] The incubation at 37°C was stopped with 0.21 M ascorbic acid in methanol∶acetic acid 99∶1 (v∶v) after the time needed to convert approximately 30% of the substrate in a control assay with 1% DMSO, without inhibitor candidates. […] The solvent used was acetonitrile∶water (43∶57, v∶v) at a flow rate of 1 ml/min. Radioactivity was detected by online-scintillation counting (Berthold LB506D) after mixing with ReadyFlowIII (Beckman). Conversion was calculated from integration of substrate and product peaks. […] All assays were run in duplicates of two independent experiments and mean values are reported. The IC50 values were determined by the One Ligand Binding model of SigmaPlot kinetics module.

In another assay the target is T2, porcine 17β-HSD 1 (Sus scrofa, UniProt B2X0A4).
T2 sequence (B2X0A4 1-321): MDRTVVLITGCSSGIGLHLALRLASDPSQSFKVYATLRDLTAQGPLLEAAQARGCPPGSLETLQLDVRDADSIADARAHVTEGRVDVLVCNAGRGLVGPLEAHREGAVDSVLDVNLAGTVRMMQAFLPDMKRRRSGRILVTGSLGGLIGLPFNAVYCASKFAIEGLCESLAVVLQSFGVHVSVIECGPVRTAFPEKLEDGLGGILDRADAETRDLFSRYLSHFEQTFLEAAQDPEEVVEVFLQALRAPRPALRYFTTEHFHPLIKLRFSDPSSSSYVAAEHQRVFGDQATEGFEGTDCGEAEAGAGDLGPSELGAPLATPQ
Kind of assay: In vitro enzymatic activity, recombinant porcine 17β-HSD 1. The class given is biochemical, pig. The settings on record: read-out: Observed % inhibition.
Source text: as §1, §2

Another assay concerns the target T3, mouse 17β-HSD 1 (Mus musculus, UniProt P51656).
T3 construct: Full length cDNAs of several 17β-HSDs type 1 originating from different species were cloned; made in house; host or cells: E.coli BL21 DE3 Codon Plus RP
T3 sequence (P51656 1-344): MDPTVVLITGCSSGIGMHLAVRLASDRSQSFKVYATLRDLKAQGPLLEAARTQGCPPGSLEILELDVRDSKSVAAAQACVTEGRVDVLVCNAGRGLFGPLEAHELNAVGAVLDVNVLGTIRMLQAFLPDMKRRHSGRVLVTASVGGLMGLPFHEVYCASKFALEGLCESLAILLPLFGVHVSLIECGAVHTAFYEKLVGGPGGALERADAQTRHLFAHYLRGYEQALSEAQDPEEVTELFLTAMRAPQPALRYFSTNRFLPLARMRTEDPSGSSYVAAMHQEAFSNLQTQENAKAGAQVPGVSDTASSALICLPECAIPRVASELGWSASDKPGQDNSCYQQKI
As to the kind of experiment: In vitro enzymatic activity, recombinant mouse 17β-HSD 1. The class given is biochemical. The settings on record: 2 µM compound, 15 nM 3H-estrone, read-out: Observed % inhibition.
Source text: as §1, §2

In another assay the target is T4, marmoset 17β-HSD 1 (Callithrix jacchus, UniProt Q9GME2).
T4 sequence (Q9GME2 1-314): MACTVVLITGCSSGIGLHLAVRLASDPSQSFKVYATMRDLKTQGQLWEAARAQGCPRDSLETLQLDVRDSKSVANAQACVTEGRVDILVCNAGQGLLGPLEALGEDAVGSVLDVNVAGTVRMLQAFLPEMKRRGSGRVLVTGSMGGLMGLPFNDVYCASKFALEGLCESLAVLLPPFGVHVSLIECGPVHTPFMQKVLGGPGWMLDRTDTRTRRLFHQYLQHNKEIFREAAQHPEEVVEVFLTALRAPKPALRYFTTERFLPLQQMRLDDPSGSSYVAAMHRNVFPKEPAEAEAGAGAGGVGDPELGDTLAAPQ
Kind of assay: In vitro enzymatic activity, recombinant marmoset 17β-HSD 1. The class given is biochemical. The settings on record: marmoset 17β-HSD 1; 2 µM compound; 15 nM 3H-estrone; read-out: Observed % inhibition.
Source text: as §1, §2

The target of the next assay is T5, human 17β-HSD 1 (Homo sapiens, UniProt P14061).
T5 construct: Full length cDNAs of several 17β-HSDs type 1 originating from different species were cloned; made in house; host or cells: E.coli BL21 DE3 Codon Plus RP
T5 sequence (P14061 1-328): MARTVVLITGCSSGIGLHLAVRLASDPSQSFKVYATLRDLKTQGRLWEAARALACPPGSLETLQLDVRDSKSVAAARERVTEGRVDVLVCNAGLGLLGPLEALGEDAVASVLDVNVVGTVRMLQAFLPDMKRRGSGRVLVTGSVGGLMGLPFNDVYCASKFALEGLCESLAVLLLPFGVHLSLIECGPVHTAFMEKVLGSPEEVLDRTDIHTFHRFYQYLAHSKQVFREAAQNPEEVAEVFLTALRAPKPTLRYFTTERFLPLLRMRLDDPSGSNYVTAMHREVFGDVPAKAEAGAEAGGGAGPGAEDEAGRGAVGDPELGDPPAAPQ
As to the kind of experiment: In vitro enzymatic activity, recombinant human 17β-HSD 1 (estrone reduction). The settings on record: pH 6.6, read-out: Observed % inhibition. The class given is biochemical.
Source text: as §1, §2

Assay [1] deals with 17β-HSD 1 orthologs of five species. Kind of assay: In vitro enzymatic activity, 17β-HSD 1 orthologs of five species taken together. The format is biochemical, human, marmoset, mouse, pig, rat. The settings on record: average over the 17β-HSD 1 orthologs of the species; 2 µM compound.

In the case of `C[C@]12CC[C@@H]3c4ccc(O)cc4CC[C@H]3[C@@H]1CCC2=O` [Compound 6, estrone, reference compound], the inhibition (in general, the drop in the measured response relative to a control, in per cent) at 2 µM is 79.1% at rat 17β-HSD 1; 86.3% at porcine 17β-HSD 1; 101% on mouse 17β-HSD 1; 110% at marmoset 17β-HSD 1; 101% on human 17β-HSD 1. Further, the “Observed % inhibition, average” value in assay [1] is 95.4%.

Source of the values: publication PMC2882332, “Species Used for Drug Testing Reveal Different Inhibition Susceptibility for 17beta-Hydroxysteroid Dehydrogenase Type 1” (PLoS ONE, 2010).
